Reference: US20240350522A1, “HYGROMYCIN A FOR TREATMENT OF DISEASES AND INFECTIONS” (FLIGHTPATH BIOSCIENCES, INC., priority 2021, published 2024)
Read-outs that look alike come from different tables or passages of the source.

Experiments:
[1] = test system: Treponema denticola; assay: MBC of Hyg A against Treponema denticola strains; type: cell-based; details: for MBC: Treponema denticola
[2] = test system: F. nucleatum polymorphum; assay: Kirby-Bauer diffusion assay; type: cell-based; details: Fusobacterium nucleatum, mean (SEM), read-out: size of zone inhibition (mm); for zone of inhibition at 5 µg/disc: Hyg A 5 μg per disc; for zone of inhibition at 10 µg/disc: Hyg A 10 μg per disc; for zone of inhibition at 20 µg/disc: Hyg A 20 μg per disc; for zone of inhibition at 40 µg/disc: Hyg A 40 μg per disc
Method: (§1) Three representatives of 6 subspecies of Fusobacterium nucleatum (F. nucleatum) for a total of 18 strains were tested in the experiment. The sub species and strains are described in Table 2.
(§2) All strains were verified by 16S V3/V6 sequence analysis prior to use. The methods described herein were performed in an anaerobic chamber at 37° C. All media and plates were degassed prior to use.
(§3) Hygromycin A (Hyg A) discs were prepared by solubilizing Hyg A in distilled water and sterile filtered. Clindamycin was used as a positive control. Defined amounts of hygromycin A (40, 20, 10 or 5 micrograms), clindamycin (2 micrograms) or sterile distilled water were absorbed onto Kirby-Bauer discs in a biosafety cabinet.
(§4) An overnight culture was grown in Wilkins-Chalgren (WC) broth and back-diluted 1:10 in fresh broth. When an OD 600 reading reached 0.5, 300 μL of the log phase culture was plated onto WC agar plates. The plates were sectioned into quadrants and a Kirby-Bauer (KB) disc impregnated with a defined amount of hygromycin A was placed in each quadrant. Plates were prepared thus in triplicate and the four amounts of hygromycin A were 40, 20 10 and 5 micrograms. The same volume of culture was spread on fourth plate sectioned into six sections for three positive and three negative controls. KB discs with water served as negative controls and KB discs impregnated with 2 micrograms of clindamycin served as positive controls. […] Table 3, Table 4, Table 5, Table 6, Table 7, Table 8 show the mean size of zone inhibitions for each of the subspecies tested using increasing concentrations of hygromycin A where the standard error of mean is represented in parenthesis.
(§5) The amount of hygromycin A was plotted against the size of the zone of inhibition for each strain tested.

[3] = test system: F. nucleatum periodonticum; assay: Kirby-Bauer diffusion assay; type: cell-based; details: Fusobacterium nucleatum, mean (SEM), read-out: size of zone inhibition (mm); for zone of inhibition at 5 µg/disc: Hyg A 5 μg per disc; for zone of inhibition at 10 µg/disc: Hyg A 10 μg per disc; for zone of inhibition at 20 µg/disc: Hyg A 20 μg per disc; for zone of inhibition at 40 µg/disc: Hyg A 40 μg per disc
Method: as §1, §2, §3, §4, §5

[4] = test system: F. nucleatum nucleatum; assay: Kirby-Bauer diffusion assay; type: cell-based; details: Fusobacterium nucleatum, mean (SEM), read-out: size of zone inhibition (mm); for zone of inhibition at 5 µg/disc: Hyg A 5 μg per disc; for zone of inhibition at 10 µg/disc: Hyg A 10 μg per disc; for zone of inhibition at 20 µg/disc: Hyg A 20 μg per disc; for zone of inhibition at 40 µg/disc: Hyg A 40 μg per disc
Method: as §1, §2, §3, §4, §5

[5] = test system: F. nucleatum fusiforme; assay: Kirby-Bauer diffusion assay; type: cell-based; details: Fusobacterium nucleatum, mean (SEM), read-out: size of zone inhibition (mm); for zone of inhibition at 5 µg/disc: Hyg A 5 μg per disc; for zone of inhibition at 10 µg/disc: Hyg A 10 μg per disc; for zone of inhibition at 20 µg/disc: Hyg A 20 μg per disc; for zone of inhibition at 40 µg/disc: Hyg A 40 μg per disc
Method: as §1, §2, §3, §4, §5

[6] = test system: F. nucleatum animalis; assay: Kirby-Bauer diffusion assay; type: cell-based, Fusobacterium nucleatum; details: for zone of inhibition at 5 µg/disc / zone of inhibition at 10 µg/disc / zone of inhibition at 20 µg/disc / zone of inhibition at 40 µg/disc: Fusobacterium nucleatum, mean (SEM), read-out: size of zone inhibition (mm); for zone of inhibition at 5 µg/disc: Hyg A 5 μg per disc; for zone of inhibition at 10 µg/disc: Hyg A 10 μg per disc; for zone of inhibition at 20 µg/disc: Hyg A 20 μg per disc; for zone of inhibition at 40 µg/disc: Hyg A 40 μg per disc
Method: as §1, §2, §3, §4, §5

[7] = test system: F. nucleatum vincentii; assay: Kirby-Bauer diffusion assay; type: cell-based, Fusobacterium nucleatum; details: for zone of inhibition at 5 µg/disc / zone of inhibition at 10 µg/disc / zone of inhibition at 20 µg/disc / zone of inhibition at 40 µg/disc: Fusobacterium nucleatum, mean (SEM), read-out: size of zone inhibition (mm); for zone of inhibition at 5 µg/disc: Hyg A 5 μg per disc; for zone of inhibition at 10 µg/disc: Hyg A 10 μg per disc; for zone of inhibition at 20 µg/disc: Hyg A 20 μg per disc; for zone of inhibition at 40 µg/disc: Hyg A 40 μg per disc
Method: as §1, §2, §3, §4, §5

[8] = strain 25586 (second column so headed)
[9] = strain 25586, 42 mm = assigned maximum
[10] = strain 203C15, 42 mm = assigned maximum
[11] = strain 203L25, 42 mm = assigned maximum

## CC(=O)[C@H]1O[C@@H](Oc2ccc(/C=C(\C)C(=O)N[C@@H]3[C@H](O)[C@@H](O)[C@H]4OCO[C@H]4[C@@H]3O)cc2O)[C@@H](O)[C@@H]1O [Hyg A, Hygromycin A]
[1]; T. denticola 33520
  MIC:MBC ratio: 0.2-1.0
[1]; T. denticola 33521
  MIC:MBC ratio: 0.3-1.0
[1]; T. denticola 35404
  MIC:MBC ratio: 0.1-1.0
[1]; T. denticola 35405
  MIC:MBC ratio: 0.2-0.4
[1]; T. denticola ASLM
  MIC:MBC ratio: 0.5-1.0
[1]; T. denticola H1-T
  MIC:MBC ratio: 1.0
[1]; T. denticola OTK
  MIC:MBC ratio: 0.5-1.0
[1]; T. denticola SP44
  MIC:MBC ratio: 0.5-2.0
[1]; T. denticola US Trep
  MIC:MBC ratio: 0.5
[1]; T. denticola strains, from MBC/MIC ratio
  type of effect (bactericidal/bacteriostatic): bactericidal
[1]; ATCC35404, ATCC 35404, strain most tolerant, read-out: MBC
  MBC: 5 µg/mL
[1]; T. denticola 33520, experiment 1, read-out: MBC (μg/ml) 1
  MBC: 5 µg/mL
[1]; T. denticola 33520, experiment 2, read-out: MBC (μg/ml) 2
  MBC: 1 µg/mL
[1]; T. denticola 33521, experiment 1, read-out: MBC (μg/ml) 1
  MBC: 0.5 µg/mL
[1]; T. denticola 33521, experiment 2, read-out: MBC (μg/ml) 2
  MBC: 2 µg/mL
[1]; T. denticola 35404, experiment 1, read-out: MBC (μg/ml) 1
  MBC: 5 µg/mL
[1]; T. denticola 35404, experiment 2, read-out: MBC (μg/ml) 2
  MBC: > 5 µg/mL
[1]; T. denticola 35405, experiment 1, read-out: MBC (μg/ml) 1
  MBC: 1 µg/mL
[1]; T. denticola 35405, experiment 2, read-out: MBC (μg/ml) 2
  MBC: 0.5 µg/mL
[1]; T. denticola ASLM, experiment 1, read-out: MBC (μg/ml) 1
  MBC: 1 µg/mL
[1]; T. denticola ASLM, experiment 2, read-out: MBC (μg/ml) 2
  MBC: 1 µg/mL
[1]; T. denticola H1-T, experiment 1, read-out: MBC (μg/ml) 1
  MBC: 0.5 µg/mL
[1]; T. denticola H1-T, experiment 2, read-out: MBC (μg/ml) 2
  MBC: 0.5 µg/mL
[1]; T. denticola OTK, experiment 1, read-out: MBC (μg/ml) 1
  MBC: 1 µg/mL
[1]; T. denticola OTK, experiment 2, read-out: MBC (μg/ml) 2
  MBC: 1 µg/mL
[1]; T. denticola SP44, experiment 1, read-out: MBC (μg/ml) 1
  MBC: 5 µg/mL
[1]; T. denticola SP44, experiment 2, read-out: MBC (μg/ml) 2
  MBC: 2 µg/mL
[1]; T. denticola US Trep, experiment 1, read-out: MBC (μg/ml) 1
  MBC: 1 µg/mL
[1]; T. denticola US Trep, experiment 2, read-out: MBC (μg/ml) 2
  MBC: 1 µg/mL
[1]; average for all T. denticola strains
  ratio of MBC/MIC: 2.3
[2]; strain 13_3C EAV005
  zone of inhibition at 5 µg/disc: 16.7 mm
  zone of inhibition at 10 µg/disc: 20 mm
  zone of inhibition at 20 µg/disc: 25.7 mm
  zone of inhibition at 40 µg/disc: 27.3 mm
[2]; strain 203L28
  zone of inhibition at 5 µg/disc: 20.3 mm
  zone of inhibition at 10 µg/disc: 23 mm
  zone of inhibition at 20 µg/disc: 24 mm
  zone of inhibition at 40 µg/disc: 30.3 mm
[2]; strain 203L29
  zone of inhibition at 5 µg/disc: 18.3 mm
  zone of inhibition at 10 µg/disc: 20.3 mm
  zone of inhibition at 20 µg/disc: 24 mm
  zone of inhibition at 40 µg/disc: 26.7 mm
[3]; strain 2_1_31 EAV015
  zone of inhibition at 5 µg/disc: 20.3 mm
  zone of inhibition at 10 µg/disc: 23.3 mm
  zone of inhibition at 20 µg/disc: 25.3 mm
  zone of inhibition at 40 µg/disc: 30 mm
[3]; strain 3_1_7B
  zone of inhibition at 5 µg/disc: 29.3 mm
  zone of inhibition at 10 µg/disc: 34.3 mm
  zone of inhibition at 20 µg/disc: 36 mm
  zone of inhibition at 40 µg/disc: 40 mm
[3]; strain 209B32
  zone of inhibition at 5 µg/disc: 22 mm
  zone of inhibition at 10 µg/disc: 25.7 mm
  zone of inhibition at 20 µg/disc: 30.7 mm
  zone of inhibition at 40 µg/disc: 35 mm
[4]; strain 203L34
  zone of inhibition at 5 µg/disc: 24 mm
  zone of inhibition at 10 µg/disc: 30 mm
  zone of inhibition at 20 µg/disc: 39.7 mm
[4]; strain 203L34, 42 mm = assigned maximum
  zone of inhibition at 40 µg/disc: 42 mm
[4]; strain 25586 (first column)
  zone of inhibition at 5 µg/disc: 16 mm
  zone of inhibition at 10 µg/disc: 20 mm
[4]; [8]
  zone of inhibition at 5 µg/disc: 25.7 mm
  zone of inhibition at 10 µg/disc: 30 mm
[4]; [9]
  zone of inhibition at 20 µg/disc: 42 mm
  zone of inhibition at 40 µg/disc: 42 mm
[4]; strain 25586
  zone of inhibition at 20 µg/disc: 26 mm
  zone of inhibition at 40 µg/disc: 30 mm
[5]; strain 203C15
  zone of inhibition at 5 µg/disc: 18 mm
  zone of inhibition at 10 µg/disc: 24 mm
[5]; [10]
  zone of inhibition at 20 µg/disc: 42 mm
  zone of inhibition at 40 µg/disc: 42 mm
[5]; strain 203L25
  zone of inhibition at 5 µg/disc: 25 mm
  zone of inhibition at 10 µg/disc: 28.7 mm
[5]; [11]
  zone of inhibition at 20 µg/disc: 42 mm
  zone of inhibition at 40 µg/disc: 42 mm
[5]; strain 203L30
  zone of inhibition at 5 µg/disc: 22.3 mm
  zone of inhibition at 10 µg/disc: 24.3 mm
  zone of inhibition at 20 µg/disc: 28 mm
  zone of inhibition at 40 µg/disc: 30 mm
[6]; strain 7_1
  zone of inhibition at 5 µg/disc: 18.3 mm
  zone of inhibition at 10 µg/disc: 18 mm
  zone of inhibition at 20 µg/disc: 22.7 mm
  zone of inhibition at 40 µg/disc: 24.3 mm
[6]; strain 218A8
  zone of inhibition at 5 µg/disc: 19.7 mm
  zone of inhibition at 10 µg/disc: 21.7 mm
  zone of inhibition at 20 µg/disc: 29.7 mm
[6]; strain 218A8, 42 mm = assigned maximum
  zone of inhibition at 40 µg/disc: 42 mm
[6]; strain CRC 7_3 JVN3C1
  zone of inhibition at 5 µg/disc: 0 mm
  zone of inhibition at 10 µg/disc: 0 mm
  zone of inhibition at 20 µg/disc: 0 mm
  zone of inhibition at 40 µg/disc: 0 mm
[6]; strain CRC 7_3JVN3C1, 5-40 μg discs
  strain sensitivity in words: fully resistant
[7]; strain 3/1/36A2
  zone of inhibition at 5 µg/disc: 19 mm
  zone of inhibition at 10 µg/disc: 21.3 mm
  zone of inhibition at 20 µg/disc: 24.7 mm
  zone of inhibition at 40 µg/disc: 27.7 mm
[7]; strain 215A9
  zone of inhibition at 5 µg/disc: 0 mm
  zone of inhibition at 10 µg/disc: 0 mm
  zone of inhibition at 20 µg/disc: 0 mm
  zone of inhibition at 40 µg/disc: 0 mm
[7]; strain CC53
  zone of inhibition at 5 µg/disc: 16.3 mm
  zone of inhibition at 10 µg/disc: 21.3 mm
  zone of inhibition at 20 µg/disc: 24 mm
  zone of inhibition at 40 µg/disc: 27.3 mm
[7]; strain 215A9, 5-40 μg discs
  strain sensitivity in words: fully resistant
